Experimental data as given in the NIST ThermoML archive (doi:10.1016/j.fluid.2012.11.018).
Numbers after ± are expanded uncertainties.

Columns and labels:
[1] = refractive index (Na D-line) (dimensionless); conditions: 298.2 K; 101.33 kPa; Liquid; Standard Abbe refractometry
[2] = 298.2 K; 101.33 kPa; Liquid; Vibrating tube method

refractive index [1]	Structure (SMILES)	mass density [2] [kg/m3]
1.4456 ± 0.0004	ClC(Cl)Cl [trichloromethane]	1480.34 ± 0.34
1.333 ± 0.0004	O [water]	–

Structure (SMILES)	refractive index [1]	mass density [2] [kg/m3]
CC1CN1 (stereo not given) [2-methylaziridine]	1.4116 ± 0.0006	802.23 ± 0.8
